Assay results from JPH10251228A, “ニューロキニンアンタゴニストとしてのピペリジン誘導体” (Schering Plough Corp, priority 1997, dated 1998).
Read-outs that look alike come from different tables or passages of the source.

Columns and labels:
[1] = molecular target: T1, human NK-1 receptor (ヒトNK-1レセプター) (Homo sapiens, UniProt P25103); test: Neurokinin receptor binding assay, human NK1 ([3H]-substance P displacement, transfected CHO cell membranes)
T1 construct: expressed in transfected cells; host or cells: Chinese hamster ovary (CHO) cells, G418-selected; membranes prepared

[2] = molecular target: T2, human NK-2 receptor (ヒトNK-2レセプター) (Homo sapiens, UniProt P21452); test: Neurokinin receptor binding assay, human NK2 ([3H]-neurokinin A displacement, transfected CHO cell membranes)
T2 construct: expressed in transfected cells; host or cells: Chinese hamster ovary (CHO) cells, G418-selected; membranes prepared
T2 sequence (P21452 1-398): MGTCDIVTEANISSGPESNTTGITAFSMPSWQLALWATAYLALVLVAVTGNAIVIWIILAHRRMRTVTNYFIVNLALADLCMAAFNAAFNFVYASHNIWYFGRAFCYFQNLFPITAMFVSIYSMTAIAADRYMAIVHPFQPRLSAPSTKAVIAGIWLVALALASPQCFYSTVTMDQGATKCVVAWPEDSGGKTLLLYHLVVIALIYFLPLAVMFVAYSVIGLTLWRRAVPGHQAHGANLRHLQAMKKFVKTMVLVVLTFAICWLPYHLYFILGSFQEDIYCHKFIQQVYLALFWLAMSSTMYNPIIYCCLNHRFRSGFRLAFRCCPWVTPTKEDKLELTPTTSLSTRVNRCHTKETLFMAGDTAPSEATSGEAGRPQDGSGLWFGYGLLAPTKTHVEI

[3] = neurokinin receptor binding assay, [3H]-neurokinin A 1.0 nM, CHO membranes, Cheng-Prusoff, read-out: NK2 Ki (binding)

T1 sequence (P25103 whole entry): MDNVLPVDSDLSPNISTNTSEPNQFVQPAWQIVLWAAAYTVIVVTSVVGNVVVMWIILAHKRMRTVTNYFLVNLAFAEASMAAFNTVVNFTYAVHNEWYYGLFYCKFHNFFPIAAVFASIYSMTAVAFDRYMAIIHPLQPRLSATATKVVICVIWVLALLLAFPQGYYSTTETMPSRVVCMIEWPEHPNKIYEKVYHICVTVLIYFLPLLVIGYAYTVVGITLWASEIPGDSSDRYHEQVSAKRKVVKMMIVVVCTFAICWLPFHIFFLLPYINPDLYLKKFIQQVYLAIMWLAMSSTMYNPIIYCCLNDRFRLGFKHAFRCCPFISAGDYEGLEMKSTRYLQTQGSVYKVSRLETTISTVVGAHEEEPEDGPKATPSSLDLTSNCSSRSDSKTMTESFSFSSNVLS

SMILES	Ki [1]	Ki [2]	Ki [2, 3]	Ki ([1]; neurokinin receptor binding assay, [3H]-substance P 0.8 nM, CHO membranes, Cheng-Prusoff, read-out: NK1 Ki (binding))
COc1ccccc1CN(C)C(=O)CC(CCN1CCC(O)(c2ccccc2)CC1)c1ccc(Cl)c(Cl)c1 (stereo not drawn) [β-(3,4-ジクロロフェニル)-4-ヒドロキシ-N-[(2-メトキシフェニル)メチル]-N-メチル-4-フェニル-1-ピペリジンペンタミド]	7.5 nM	33 nM	–	–
COc1cccc(CN(C)C(=O)CC(CCN2CCC(O)(c3ccccc3)CC2)c2ccc(Cl)c(Cl)c2)c1 (stereo not drawn) [β-(3,4-ジクロロフェニル)-4-ヒドロキシ-N-[(3-メトキシフェニル)メチル]-N-メチル-4-フェニル-1-ピペリジンペンタミド]	12 nM	–	215 nM	–
CN(CCc1ccccc1)C(=O)CC(CCN1CCC(O)(c2ccccc2)CC1)c1ccc(Cl)c(Cl)c1 (stereo not drawn) [β-(3,4-ジクロロフェニル)-4-ヒドロキシ-N-メチル-4-フェニル-N-(2-フェニルエチル)-1-ピペリジンペンタミド]	70 nM	46 nM	–	–
CN(Cc1ccccc1)C(=O)CC(CCN1CCC(O)(c2ccccc2)CC1)c1ccc(Cl)c(Cl)c1 (stereo not drawn) [β-(3,4-ジクロロフェニル)-4-ヒドロキシ-N-メチル-4-フェニル-N-(フェニルメチル)-1-ピペリジンペンタミド]	6.8 nM	–	108 nM	–
CN(C(=O)CC(CCN1CCC(O)(c2ccccc2)CC1)c1ccc(Cl)c(Cl)c1)c1ccccc1 (stereo not drawn) [β-(3,4-ジクロロフェニル)-4-ヒドロキシ-N-メチル-N,4-ジフェニル-1-ピペリジンペンタミド]	–	5.2 nM	–	150 nM
